Key:
[1] = target: T1, human TLR7 (Homo sapiens, UniProt Q9NYK1); assay: TLR7 cellular NFκB-luc reporter assay; format: cell-based; design: unit not given here; conditions: lowest effective concentration; HEK293 cells transiently transfected with TLR7 and NFκB-luc, 6 h incubation
T1 construct: expressed in transfected cells; host or cells: HEK293
T1 sequence (Q9NYK1 27-1049): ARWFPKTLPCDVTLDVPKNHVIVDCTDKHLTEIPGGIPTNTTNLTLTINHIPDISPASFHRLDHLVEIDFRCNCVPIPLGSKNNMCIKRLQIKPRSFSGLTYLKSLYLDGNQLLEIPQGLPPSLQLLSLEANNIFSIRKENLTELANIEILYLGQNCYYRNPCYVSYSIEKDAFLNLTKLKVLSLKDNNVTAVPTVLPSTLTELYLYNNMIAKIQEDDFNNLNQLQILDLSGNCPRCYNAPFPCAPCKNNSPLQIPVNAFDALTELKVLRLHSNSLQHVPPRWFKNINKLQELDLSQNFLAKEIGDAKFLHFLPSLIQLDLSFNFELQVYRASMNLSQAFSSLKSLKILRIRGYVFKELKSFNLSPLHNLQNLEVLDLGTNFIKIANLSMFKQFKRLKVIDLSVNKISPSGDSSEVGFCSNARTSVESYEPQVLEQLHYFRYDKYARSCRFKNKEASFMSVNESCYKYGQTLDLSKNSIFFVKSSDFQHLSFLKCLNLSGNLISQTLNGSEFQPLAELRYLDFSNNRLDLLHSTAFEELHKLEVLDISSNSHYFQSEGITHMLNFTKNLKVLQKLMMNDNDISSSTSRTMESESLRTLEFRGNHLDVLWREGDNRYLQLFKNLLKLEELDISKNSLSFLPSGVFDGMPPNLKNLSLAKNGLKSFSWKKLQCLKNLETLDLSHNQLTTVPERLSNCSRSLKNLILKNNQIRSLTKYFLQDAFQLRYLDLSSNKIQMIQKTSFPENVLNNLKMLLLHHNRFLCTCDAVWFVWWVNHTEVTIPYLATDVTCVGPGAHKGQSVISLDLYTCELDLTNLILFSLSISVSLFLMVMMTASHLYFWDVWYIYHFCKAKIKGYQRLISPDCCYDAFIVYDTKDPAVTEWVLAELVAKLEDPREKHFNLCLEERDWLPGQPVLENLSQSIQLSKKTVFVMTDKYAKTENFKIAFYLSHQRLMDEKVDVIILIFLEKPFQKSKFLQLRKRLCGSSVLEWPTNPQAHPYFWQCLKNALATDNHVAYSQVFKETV
Procedure: (§1) The ability of compounds to activate human TLR7 and/or TLR8 was assessed in a cellular reporter assay using HEK293 cells transiently transfected with a TLR7 or TLR8 expression vector and NFκB-luc reporter construct. In one instance, the TLR expression construct expresses the respective wild type sequence or a mutant sequence comprising a deletion in the second leucine-rich repeat of the TLR.
(§2) HEK293 cells were grown in culture medium (DMEM supplemented with 10% FCS and 2 mM Glutamine). For transfection of cells in 10 cm dishes, cells were detached with Trypsin-EDTA, transfected with a mix of CMV-TLR7 or TLR8 plasmid (750 ng), NFκB-luc plasmid (375 ng) and a transfection reagent and incubated 24 h at 37° C. in a humidified 5% CO2 atmosphere. Transfected cells were then detached with Trypsin-EDTA, washed in PBS and re-suspended in medium to a density of 1.67×10^5 cells/mL. Thirty microliters of cells were then dispensed into each well in 384-well plates, where 10 μL of compound in 4% DMSO was already present. Following 6 h incubation at 37° C., 5% CO2, the luciferase activity was determined by adding 15 μl of STEADY LITE PLUS substrate (PERKIN ELMER) to each well and readout performed on a VIEWLUX ULTRAHTS microplate imager (PERKIN ELMER). Dose response curves were generated from measurements performed in quadruplicates. Lowest effective concentrations (LEC) values, defined as the concentration that induces an effect which is at least two-fold above the standard deviation of the assay, were determined for each compound.

[2] = target: T2, human TLR8 (Homo sapiens, UniProt Q9NR97); assay: TLR8 cellular NFκB-luc reporter assay; format: cell-based; design: unit not given here; conditions: lowest effective concentration; HEK293 cells transiently transfected with TLR8 and NFκB-luc, 6 h incubation
T2 construct: expressed in transfected cells; host or cells: HEK293
T2 sequence (Q9NR97 27-1041): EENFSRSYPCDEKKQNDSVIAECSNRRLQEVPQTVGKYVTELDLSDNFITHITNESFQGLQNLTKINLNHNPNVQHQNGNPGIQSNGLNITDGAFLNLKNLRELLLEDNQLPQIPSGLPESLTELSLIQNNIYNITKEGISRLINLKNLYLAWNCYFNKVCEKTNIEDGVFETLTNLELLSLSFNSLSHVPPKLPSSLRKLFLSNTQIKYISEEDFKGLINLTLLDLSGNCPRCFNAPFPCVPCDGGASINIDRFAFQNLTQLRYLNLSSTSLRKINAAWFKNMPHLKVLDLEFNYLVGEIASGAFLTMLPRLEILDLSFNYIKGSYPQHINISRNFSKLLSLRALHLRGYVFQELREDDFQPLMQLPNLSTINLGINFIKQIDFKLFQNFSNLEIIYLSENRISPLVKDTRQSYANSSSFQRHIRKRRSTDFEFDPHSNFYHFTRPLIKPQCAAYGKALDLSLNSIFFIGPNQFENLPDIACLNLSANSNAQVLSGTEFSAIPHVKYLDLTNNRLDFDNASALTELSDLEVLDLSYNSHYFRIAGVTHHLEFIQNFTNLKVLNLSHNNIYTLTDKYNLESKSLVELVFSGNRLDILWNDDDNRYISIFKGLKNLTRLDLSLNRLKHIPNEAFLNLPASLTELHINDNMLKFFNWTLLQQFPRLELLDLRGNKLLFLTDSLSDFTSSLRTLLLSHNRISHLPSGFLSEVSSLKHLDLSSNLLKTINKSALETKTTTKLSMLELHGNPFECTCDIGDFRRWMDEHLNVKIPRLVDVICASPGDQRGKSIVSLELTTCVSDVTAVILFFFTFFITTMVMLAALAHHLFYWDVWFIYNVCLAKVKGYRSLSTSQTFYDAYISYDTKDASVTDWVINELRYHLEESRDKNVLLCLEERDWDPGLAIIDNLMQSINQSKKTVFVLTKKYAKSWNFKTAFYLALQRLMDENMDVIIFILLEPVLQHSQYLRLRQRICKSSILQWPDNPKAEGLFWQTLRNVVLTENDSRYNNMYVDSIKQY
Procedure: as §1, §2

## CCCC[C@H](CO)Nc1nc(N)nc2cccc(C3CC3)c12 [Compound 99, (R)-2-((2-amino-5-cyclopropylquinazolin-4-yl)amino)hexan-1-ol]
[1]
  hTLR7-wt (LEC): >100
[2]
  hTLR8-wt (LEC): 0.35

## CCCC[C@H](CO)Nc1nc(N)nc2cccc(C)c12 [Compound 114, (R)-2-((2-amino-5-methylquinazolin-4-yl)amino)hexan-1-ol]
[1]
  hTLR7-wt (LEC): >100

## CCC[C@H](CO)Nc1nc(N)nc2c(F)cccc12 [Compound 108, (R)-2-((2-amino-8-fluoroquinazolin-4-yl)amino)pentan-1-ol]
[1]
  hTLR7-wt (LEC): >25
[2]
  hTLR8-wt (LEC): 3.27

## CCCC[C@H](CO)Nc1nc(N)nc2c(F)cccc12 [Compound 107, (R)-2-((2-amino-8-fluoroquinazolin-4-yl)amino)hexan-1-ol]
[1]
  hTLR7-wt (LEC): >25
[2]
  hTLR8-wt (LEC): 0.11

## CCCC[C@H](CO)Nc1nc(N)nc2cc(C#N)ccc12 [Compound 102, (R)-2-amino-4-((1-hydroxyhexan-2-yl)amino)quinazoline-7-carbonitrile]
[1]
  hTLR7-wt (LEC): >100
[2]
  hTLR8-wt (LEC): 0.14

## CCCC[C@H](CO)Nc1nc(N)nc2cc(F)ccc12 [Compound 111, (R)-2-((2-amino-7-fluoroquinazolin-4-yl)amino)hexan-1-ol]
[2]
  hTLR8-wt (LEC): 0.04

## CCC[C@H](CO)Nc1nc(N)nc2c(C)cccc12 [Compound 104, (R)-2-((2-amino-8-methylquinazolin-4-yl)amino)pentan-1-ol]
[1]
  hTLR7-wt (LEC): >25
[2]
  hTLR8-wt (LEC): 5.75

## CCCC[C@H](CO)Nc1nc(N)nc2c(Cl)cccc12 [Compound 106, (R)-2-((2-amino-8-chloroquinazolin-4-yl)amino)hexan-1-ol]
[1]
  hTLR7-wt (LEC): >25
[2]
  hTLR8-wt (LEC): 2.72

## CCCC[C@H](CO)Nc1nc(N)nc2c(C)cccc12 [Compound 105, (R)-2-((2-amino-8-methylquinazolin-4-yl)amino)hexan-1-ol]
[1]
  hTLR7-wt (LEC): >25
[2]
  hTLR8-wt (LEC): 0.46

## CCCC[C@H](CO)Nc1nc(N)nc2cccc(C(F)(F)F)c12 [Compound 101, (R)-2-((2-amino-5-(trifluoromethyl)quinazolin-4-yl)amino)hexan-1-ol]
[1]
  hTLR7-wt (LEC): >100
[2]
  hTLR8-wt (LEC): 0.66

## CC[C@H](C)[C@H](CO)Nc1nc(N)nc2cccc(F)c12 [Compound 119, (2R,3S)-2-((2-amino-5-fluoroquinazolin-4-yl)amino)-3-methylpentan-1-ol]
[1]
  hTLR7-wt (LEC): 1.71
[2]
  hTLR8-wt (LEC): 0.09

## CCCC[C@H](CO)Nc1nc(N)nc2c(OC)cccc12 [Compound 115, (R)-2-((2-amino-8-methoxyquinazolin-4-yl)amino)hexan-1-ol]
[1]
  hTLR7-wt (LEC): >50
[2]
  hTLR8-wt (LEC): 3.74

## CCCC[C@H](CO)Nc1nc(N)nc2cc(C(=O)OC)ccc12 [Compound 116, Methyl (R)-2-amino-4-((1-hydroxyhexan-2-yl)amino)quinazoline-7-carboxylate]
[1]
  hTLR7-wt (LEC): >100
[2]
  hTLR8-wt (LEC): 0.57

## CCCC[C@H](CO)Nc1nc(N)nc2cccc(Cl)c12 [Compound 113, (R)-2-((2-amino-5-chloroquinazolin-4-yl)amino)hexan-1-ol]
[1]
  hTLR7-wt (LEC): >100

## CSCC[C@H](CO)Nc1nc(N)nc2cccc(F)c12 [Compound 118, (R)-2-((2-amino-5-fluoroquinazolin-4-yl)amino)-4-(methylthio)butan-1-ol]
[1]
  hTLR7-wt (LEC): >50
[2]
  hTLR8-wt (LEC): 0.7

## CCCC[C@H](CO)Nc1nc(N)nc2c(F)c(F)ccc12 [Compound 117, (R)-2-((2-amino-7,8-difluoroquinazolin-4-yl)amino)hexan-1-ol]
[1]
  hTLR7-wt (LEC): >100
[2]
  hTLR8-wt (LEC): 0.41

## CCCC[C@H](COC(=O)C(C)C)Nc1nc(N)nc2c(C)cccc12 [Compound 109, (R)-2-((2-amino-8-methylquinazolin-4-yl)amino)hexyl isobutyrate]
[1]
  hTLR7-wt (LEC): >25
[2]
  hTLR8-wt (LEC): 0.64

## CCCC[C@H](CO)Nc1nc(N)nc2cccc(F)c12 [Compound 100, (R)-2-((2-amino-5-fluoroquinazolin-4-yl)amino)hexan-1-ol]
[1]
  hTLR7-wt (LEC): 27.7
[2]
  hTLR8-wt (LEC): 0.07

## CCCC[C@H](CO)Nc1nc(N)nc2cc(-c3nnco3)ccc12 [Compound 103, (R)-2-((2-amino-7-(1,3,4-oxadiazol-2-yl)quinazolin-4-yl)amino)hexan-1-ol]
[1]
  hTLR7-wt (LEC): >25
[2]
  hTLR8-wt (LEC): 0.38
